Measured values published in ChEMBL document CHEMBL1151381, “Aporphine Alkaloids From Annona acuminata” (1982).
Converted amounts (≈) assume the structure as drawn.

Each compound was assayed on KB (assay: Cytotoxicity against human KB cells). Settings: read-out: ED50 (the source's name).
Type: functional

SMILES	EC50
O=C1c2ccccc2-c2c3c(cc4ccnc1c24)OCO3 [LIRIODENINE]	3.1 µg/mL (≈ 11.3 µM)
COc1c(OC)c2c3c(nccc3c1OC)C(=O)c1ccccc1-2 [HOMOMOSCHATOLINE]	> 10 µg/mL
COc1cc2ccnc3c2c(c1OC)-c1ccccc1C3=O [LYSICAMINE]	> 10 µg/mL
